Read-outs that look alike come from different tables or passages of the source.
Assays:
[1] = biological target: ROCK1 (Homo sapiens, UniProt Q13464); test: Biochemical kinase profiling (33PanQinase radiometric assay)
[2] = biological target: FGFR2 (Homo sapiens, UniProt P21802); test: as above; conditions: read-out: FGFR2 IC50; ATP at apparent Km
[3] = biological target: FGFR1 (Homo sapiens, UniProt P11362); test: as above; conditions: read-out: FGFR1 IC50; ATP at apparent Km
[4] = biological target: FGFR3 (Homo sapiens, UniProt P22607); test: as above; conditions: read-out: FGFR3 IC50; ATP at apparent Km
[5] = biological target: ROCK2 (Homo sapiens, UniProt O75116); test: as above
[6] = biological target: TGFBR2 (Homo sapiens, UniProt P37173); test: as above
[7] = tested on: NMuMG cells; test: High-content microscopy EMT screen in TGFβ-treated NMuMG cells (FA, SF, FN, cell count); type: cell-based, murine
[8] = biological target: T1, TGFBR1 (Homo sapiens, UniProt P36897); test: Biochemical kinase profiling (33PanQinase radiometric assay)
T1 sequence (P36897 34-503): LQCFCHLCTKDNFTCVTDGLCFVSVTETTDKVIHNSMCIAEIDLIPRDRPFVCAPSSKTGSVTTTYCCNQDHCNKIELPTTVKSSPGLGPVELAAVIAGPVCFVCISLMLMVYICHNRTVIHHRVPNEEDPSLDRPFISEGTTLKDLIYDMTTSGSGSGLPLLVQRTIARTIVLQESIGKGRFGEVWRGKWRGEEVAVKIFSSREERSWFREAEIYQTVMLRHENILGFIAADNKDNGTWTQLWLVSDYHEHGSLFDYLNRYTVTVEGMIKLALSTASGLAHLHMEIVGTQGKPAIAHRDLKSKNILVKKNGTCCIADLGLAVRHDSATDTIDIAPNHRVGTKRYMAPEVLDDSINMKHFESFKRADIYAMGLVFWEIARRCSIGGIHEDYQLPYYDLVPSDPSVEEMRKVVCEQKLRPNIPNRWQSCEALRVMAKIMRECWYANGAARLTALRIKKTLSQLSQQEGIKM

[9] = biological target: FGFR4 (Homo sapiens, UniProt P22455); test: as above
[10] = biological target: PDGFRA (Homo sapiens, UniProt P16234); test: as above
[11] = biological target: PDGFRB (Homo sapiens, UniProt P09619); test: as above
[12] = biological target: SRC (Homo sapiens, UniProt P12931); test: as above
[13] = tested on: Py2T cells; test: High-content microscopy EMT assay in TGFβ-treated Py2T breast cancer cells; type: cell-based, murine
[14] = tested on: ROCK; test: ROCK cellular assay (MLC Thr18/Ser19 phosphorylation ELISA in A7r5 cells); type: cell-based, rat; conditions: 90 min compound
[15] = read-out: TGFBR2 IC50, ATP at apparent Km
[16] = NMuMG, TGFβ1 2 ng/ml plus compound, 4 days; parameter decreased by 50%
[17] = NMuMG; cell count decreased by 50% compared to DMSO control; read-out: Tox IC50
[18] = NMuMG; compared to reference 10 μM SB-431542 = 100%
[19] = read-out: TGFBR1 IC50, ATP at apparent Km
[20] = read-out: FGFR4 IC50, ATP at apparent Km
[21] = Mus musculus; NMuMG; cell count decreased by 50% compared to DMSO control; read-out: Tox IC50
[22] = read-out: PDGFRA IC50, ATP at apparent Km
[23] = read-out: PDGFRB IC50, ATP at apparent Km
[24] = NMuMG, TGFβ1 2 ng/ml plus compound, 4 days; parameter decreased by 50%; read-out: FA IC50 (focal adhesion formation)
[25] = NMuMG, TGFβ1 2 ng/ml plus compound, 4 days; parameter decreased by 50%; read-out: FN IC50 (fibronectin patch formation)
[26] = NMuMG, TGFβ1 2 ng/ml plus compound, 4 days; parameter decreased by 50%; read-out: SF IC50 (stress fibers)
[27] = NMuMG; cell count increased by 50% compared to 100% with 10 μM SB-431542; read-out: CCI IC50 (cell count increase)
[28] = Mus musculus, read-out: CCI IC50 (cell count increase)
[29] = Mus musculus, read-out: Emax (maximal effect on cell count)
[30] = Mus musculus, 96 h; NMuMG, TGFβ1 2 ng/ml plus compound, 4 days; parameter decreased by 50%; read-out: FA IC50 (focal adhesion formation)
[31] = Mus musculus, 96 h; NMuMG, TGFβ1 2 ng/ml plus compound, 4 days; parameter decreased by 50%; read-out: FN IC50 (fibronectin patch formation)
[32] = Mus musculus, 96 h; NMuMG, TGFβ1 2 ng/ml plus compound, 4 days; parameter decreased by 50%; read-out: SF IC50 (stress fibers)
[33] = Mus musculus; NMuMG; mean of IC50 values obtained for FA, SF, FN; read-out: EMT (FA/SF/FN) combined IC50
[34] = Mus musculus; read-out: CCI IC50 (cell count increase)
[35] = Mus musculus; read-out: Emax (maximal effect on cell count)

Sequence of ROCK2 (O75116 whole entry): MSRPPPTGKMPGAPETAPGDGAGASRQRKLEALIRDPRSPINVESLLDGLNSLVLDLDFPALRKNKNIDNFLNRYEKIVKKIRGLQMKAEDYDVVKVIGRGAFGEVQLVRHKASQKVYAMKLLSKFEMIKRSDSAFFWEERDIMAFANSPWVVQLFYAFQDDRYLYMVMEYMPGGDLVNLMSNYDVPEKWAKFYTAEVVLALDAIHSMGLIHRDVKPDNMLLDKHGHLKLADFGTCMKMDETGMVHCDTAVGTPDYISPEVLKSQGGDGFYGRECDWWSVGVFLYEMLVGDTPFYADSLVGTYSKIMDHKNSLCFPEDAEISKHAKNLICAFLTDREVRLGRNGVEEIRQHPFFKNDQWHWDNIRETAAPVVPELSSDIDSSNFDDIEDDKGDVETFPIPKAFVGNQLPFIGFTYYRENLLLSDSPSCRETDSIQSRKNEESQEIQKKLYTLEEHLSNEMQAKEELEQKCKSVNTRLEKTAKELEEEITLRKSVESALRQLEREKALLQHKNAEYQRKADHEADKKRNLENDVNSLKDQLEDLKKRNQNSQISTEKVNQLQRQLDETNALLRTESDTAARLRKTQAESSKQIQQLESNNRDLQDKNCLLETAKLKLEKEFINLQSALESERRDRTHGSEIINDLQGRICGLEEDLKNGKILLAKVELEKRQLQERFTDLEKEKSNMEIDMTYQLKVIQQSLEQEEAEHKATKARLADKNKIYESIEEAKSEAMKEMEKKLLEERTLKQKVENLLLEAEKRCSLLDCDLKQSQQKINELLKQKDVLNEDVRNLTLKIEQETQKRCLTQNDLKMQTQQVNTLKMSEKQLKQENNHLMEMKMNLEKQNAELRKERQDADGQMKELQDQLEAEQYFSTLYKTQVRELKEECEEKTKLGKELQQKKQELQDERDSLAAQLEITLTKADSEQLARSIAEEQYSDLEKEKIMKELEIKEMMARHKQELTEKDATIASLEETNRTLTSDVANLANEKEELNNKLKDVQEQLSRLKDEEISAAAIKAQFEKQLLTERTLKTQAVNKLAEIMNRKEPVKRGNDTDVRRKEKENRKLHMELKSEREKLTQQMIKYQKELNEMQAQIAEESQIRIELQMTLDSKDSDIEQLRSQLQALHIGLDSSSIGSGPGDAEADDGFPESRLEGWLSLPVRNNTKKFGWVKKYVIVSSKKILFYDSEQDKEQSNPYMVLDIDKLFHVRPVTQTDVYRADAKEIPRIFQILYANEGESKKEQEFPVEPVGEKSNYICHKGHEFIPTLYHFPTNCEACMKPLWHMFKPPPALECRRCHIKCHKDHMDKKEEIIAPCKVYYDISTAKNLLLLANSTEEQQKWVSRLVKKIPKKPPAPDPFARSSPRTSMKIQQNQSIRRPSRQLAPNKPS
Sequence of FGFR2 (P21802 22-821): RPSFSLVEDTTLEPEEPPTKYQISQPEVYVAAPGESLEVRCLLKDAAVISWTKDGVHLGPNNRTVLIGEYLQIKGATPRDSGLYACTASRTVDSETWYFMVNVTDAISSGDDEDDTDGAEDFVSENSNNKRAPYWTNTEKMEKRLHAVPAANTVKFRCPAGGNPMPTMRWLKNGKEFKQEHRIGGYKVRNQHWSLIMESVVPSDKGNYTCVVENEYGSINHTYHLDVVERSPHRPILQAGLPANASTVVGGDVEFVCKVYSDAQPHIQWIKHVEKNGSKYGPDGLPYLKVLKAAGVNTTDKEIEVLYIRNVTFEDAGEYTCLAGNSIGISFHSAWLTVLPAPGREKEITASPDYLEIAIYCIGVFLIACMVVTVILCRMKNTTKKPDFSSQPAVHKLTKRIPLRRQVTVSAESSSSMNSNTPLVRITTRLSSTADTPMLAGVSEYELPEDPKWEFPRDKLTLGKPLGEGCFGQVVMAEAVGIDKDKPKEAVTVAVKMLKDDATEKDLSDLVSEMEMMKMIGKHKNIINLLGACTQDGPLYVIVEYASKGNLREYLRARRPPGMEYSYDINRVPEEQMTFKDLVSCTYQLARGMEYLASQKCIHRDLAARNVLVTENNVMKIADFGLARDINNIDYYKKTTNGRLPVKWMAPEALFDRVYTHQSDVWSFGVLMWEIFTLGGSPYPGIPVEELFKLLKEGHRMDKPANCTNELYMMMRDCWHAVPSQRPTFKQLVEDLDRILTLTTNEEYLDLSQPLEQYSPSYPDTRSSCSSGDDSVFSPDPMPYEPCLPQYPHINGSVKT
Sequence of PDGFRB (P09619 33-1106): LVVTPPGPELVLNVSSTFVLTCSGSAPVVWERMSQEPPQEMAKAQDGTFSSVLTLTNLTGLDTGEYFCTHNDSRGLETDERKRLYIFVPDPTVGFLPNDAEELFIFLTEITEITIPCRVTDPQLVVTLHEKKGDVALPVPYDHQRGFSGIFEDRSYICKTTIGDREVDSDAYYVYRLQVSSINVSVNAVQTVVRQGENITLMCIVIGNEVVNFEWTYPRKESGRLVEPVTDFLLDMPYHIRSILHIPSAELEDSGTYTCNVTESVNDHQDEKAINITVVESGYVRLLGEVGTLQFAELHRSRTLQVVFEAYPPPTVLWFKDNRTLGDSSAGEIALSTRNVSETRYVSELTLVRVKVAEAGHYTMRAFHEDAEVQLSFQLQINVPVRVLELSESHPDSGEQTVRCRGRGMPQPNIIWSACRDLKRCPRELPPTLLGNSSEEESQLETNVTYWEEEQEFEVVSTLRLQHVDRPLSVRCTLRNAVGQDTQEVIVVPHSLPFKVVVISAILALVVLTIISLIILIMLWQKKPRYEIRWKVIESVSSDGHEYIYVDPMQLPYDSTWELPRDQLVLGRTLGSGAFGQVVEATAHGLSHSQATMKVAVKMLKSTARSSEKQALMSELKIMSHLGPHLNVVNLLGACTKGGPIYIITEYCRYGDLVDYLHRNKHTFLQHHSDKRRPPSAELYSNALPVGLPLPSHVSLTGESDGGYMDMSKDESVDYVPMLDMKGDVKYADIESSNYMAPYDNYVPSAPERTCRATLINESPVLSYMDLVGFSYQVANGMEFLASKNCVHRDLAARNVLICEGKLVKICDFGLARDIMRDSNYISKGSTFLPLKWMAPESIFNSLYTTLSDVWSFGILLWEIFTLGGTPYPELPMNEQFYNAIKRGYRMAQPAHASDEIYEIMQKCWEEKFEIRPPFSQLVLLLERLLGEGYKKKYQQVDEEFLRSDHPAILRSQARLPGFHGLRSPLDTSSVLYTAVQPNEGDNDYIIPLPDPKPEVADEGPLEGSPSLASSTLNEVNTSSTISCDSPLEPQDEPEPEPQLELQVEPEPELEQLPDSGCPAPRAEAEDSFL
Sequence of PDGFRA (P16234 24-1089): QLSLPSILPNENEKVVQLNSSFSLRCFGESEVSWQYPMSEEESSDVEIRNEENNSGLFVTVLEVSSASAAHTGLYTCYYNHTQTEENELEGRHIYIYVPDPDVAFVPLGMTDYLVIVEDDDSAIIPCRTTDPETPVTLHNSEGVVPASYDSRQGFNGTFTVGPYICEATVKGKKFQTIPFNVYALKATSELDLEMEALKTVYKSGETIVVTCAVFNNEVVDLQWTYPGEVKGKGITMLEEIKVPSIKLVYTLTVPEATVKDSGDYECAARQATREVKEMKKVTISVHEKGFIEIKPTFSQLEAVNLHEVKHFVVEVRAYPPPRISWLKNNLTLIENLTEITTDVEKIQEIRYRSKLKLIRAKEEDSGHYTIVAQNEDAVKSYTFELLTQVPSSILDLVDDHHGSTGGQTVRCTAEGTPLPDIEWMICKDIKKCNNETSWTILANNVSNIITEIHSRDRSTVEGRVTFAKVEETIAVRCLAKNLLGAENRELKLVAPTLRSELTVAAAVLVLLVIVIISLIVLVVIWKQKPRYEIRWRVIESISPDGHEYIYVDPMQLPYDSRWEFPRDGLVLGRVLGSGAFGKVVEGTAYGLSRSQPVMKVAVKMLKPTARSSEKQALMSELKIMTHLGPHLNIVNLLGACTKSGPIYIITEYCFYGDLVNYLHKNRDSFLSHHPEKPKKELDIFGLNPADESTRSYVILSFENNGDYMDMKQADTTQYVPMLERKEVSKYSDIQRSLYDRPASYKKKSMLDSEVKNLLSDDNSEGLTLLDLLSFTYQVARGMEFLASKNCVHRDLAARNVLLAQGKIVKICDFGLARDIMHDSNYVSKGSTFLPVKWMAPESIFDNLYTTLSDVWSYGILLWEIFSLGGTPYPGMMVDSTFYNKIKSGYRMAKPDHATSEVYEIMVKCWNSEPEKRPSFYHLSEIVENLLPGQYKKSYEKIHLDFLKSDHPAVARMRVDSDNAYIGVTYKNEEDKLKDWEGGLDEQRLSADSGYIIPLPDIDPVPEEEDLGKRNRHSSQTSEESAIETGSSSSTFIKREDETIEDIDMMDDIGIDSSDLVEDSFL
Sequence of TGFBR2 (P37173 23-567): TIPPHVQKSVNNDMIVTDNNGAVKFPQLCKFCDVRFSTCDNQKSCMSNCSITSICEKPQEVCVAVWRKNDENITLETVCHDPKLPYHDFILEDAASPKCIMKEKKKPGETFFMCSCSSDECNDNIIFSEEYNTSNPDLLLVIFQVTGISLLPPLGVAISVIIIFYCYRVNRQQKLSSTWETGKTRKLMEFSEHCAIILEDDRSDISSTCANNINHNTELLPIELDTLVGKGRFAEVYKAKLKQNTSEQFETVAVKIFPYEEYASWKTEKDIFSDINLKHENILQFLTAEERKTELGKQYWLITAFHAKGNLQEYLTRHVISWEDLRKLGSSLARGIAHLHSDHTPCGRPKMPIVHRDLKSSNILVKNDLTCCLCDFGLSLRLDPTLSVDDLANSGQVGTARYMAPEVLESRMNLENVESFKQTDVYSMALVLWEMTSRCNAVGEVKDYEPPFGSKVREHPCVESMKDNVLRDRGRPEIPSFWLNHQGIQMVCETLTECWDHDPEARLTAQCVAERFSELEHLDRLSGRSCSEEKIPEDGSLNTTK

| IC50 [2] [nM] | IC50 [6, 15] [nM] | IC50 [8, 19] [nM] | IC50 [9, 20] [nM] | Compound | FA IC50 (focal adhesion formation) [7, 16] | FN IC50 (fibronectin patch formation) [7, 16] | SF IC50 (stress fibers) [7, 16] | IC50 [7, 17] [nM] | Emax (maximal effect on cell count) [7, 18] | IC50 [5] [nM] | IC50 [7, 21] [nM] | IC50 [10, 22] [nM] | IC50 [11, 23] [nM] | IC50 [7, 24] [nM] | IC50 [7, 25] [nM] | IC50 [7, 26] [nM] | IC50 [7, 27] [nM] | IC50 [7, 30] [nM] | IC50 [7, 31] [nM] | IC50 [7, 32] [nM] | also measured |
| --- | --- | --- | --- | --- | --- | --- | --- | --- | --- | --- | --- | --- | --- | --- | --- | --- | --- | --- | --- | --- | --- |
| 10.2 | > 10000 | > 10000 | 492 | COc1cc(OC)cc(-c2cc3cnc(N)nc3nc2NC(=O)NC(C)(C)C)c1 [PD-166866] | n.m. | n.m. | n.m. | 3360 | n.m. |  |  |  |  |  |  |  |  |  |  |  | IC50 ([1]; read-out: ROCK1 IC50, ATP at apparent Km): > 10000 nM; IC50 [3]: 22.5 nM; IC50 [4]: 49.3 nM; IC50 ([5]; read-out: ROCK2 IC50, ATP at apparent Km): > 10000 nM; CCI IC50 (cell count increase) ([7]; NMuMG; cell count increased by 50% compared to 100% with 10 μM SB-431542): n.m. |
|  |  |  |  | CCN(CC)CCCCNc1ncc2cc(-c3cc(OC)cc(OC)c3)c(NC(=O)NC(C)(C)C)nc2n1 [PD-173074] | n.m. | n.m. | n.m. |  |  | > 10000 | 3220 |  |  |  |  |  |  |  |  |  | IC50 [1]: > 10000 nM; IC50 [10]: > 10000 nM; IC50 [11]: 3390 nM; IC50 [6]: > 10000 nM; Emax (maximal effect on cell count) [7]: n.m.; IC50 [8]: > 10000 nM; IC50 [9]: 418 nM; IC50 [12]: 6730 nM |
| 456 | 1310 | 297 | 622 | Cc1ccc(-c2nn(C(C)(C)C)c3ncnc(N)c23)cc1 [PP1] |  |  |  | 11400 | 22.3% |  |  | 3690 | 132 | 910 | 1520 | 1140 | 374 |  |  |  | IC50 ([7]; NMuMG; mean of IC50 values obtained for FA, SF, FN; read-out: EMT (FA/SF/FN) combined IC50): 1190 nM |
|  |  |  |  | CCn1c(-c2nonc2N)nc2cncc(C(=O)N3CC[C@H](N)C3)c21 [SB-772077B] |  |  |  |  |  |  | 5330 |  |  |  |  |  |  | 51 | 54 | 29 | IC50 [13, 28]: 28.4 nM; Emax [13, 29]: 63.6%; IC50 ([13]; Mus musculus, read-out: Tox IC50): 1960 nM; IC50 ([14]; Rattus norvegicus, 1.5 h): 28 nM; IC50 [7, 28]: 50.5 nM; Emax [7, 29]: 30.5%; IC50 [7, 33]: 44.7 nM |
|  |  |  |  | CN(C)CCOc1cc(-c2cn[nH]c2)ccc1NC(=O)C1COc2ccccc2O1 (centres unmarked) [SR-3677] |  |  |  |  |  | 76 | > 25000 |  |  |  |  |  |  | 160 | 179 | 31 | IC50 ([13]; Mus musculus, 96 h; Py2T, TGFβ plus compound, 4 days; read-out: FA IC50 (focal adhesions)): 415 nM; IC50 ([13]; Mus musculus, 96 h; Py2T, TGFβ plus compound, 4 days; read-out: FN IC50 (fibronectin patches)): 521 nM; IC50 ([13]; Mus musculus, 96 h; Py2T, TGFβ plus compound, 4 days; read-out: SF IC50 (stress fibers)): 89 nM; IC50 ([13]; Mus musculus; Py2T; cell count decreased by 50% compared to DMSO control; read-out: Tox IC50): 6810 nM; IC50 [13, 34]: 15 nM; Emax [13, 35]: 51%; IC50 [7, 33]: 123 nM; IC50 [7, 34]: 50.6 nM; Emax [7, 35]: 34.7% |

| Compound | IC50 [2] [nM] | IC50 [6, 15] [nM] | IC50 [8, 19] [nM] | IC50 [9, 20] [nM] | FA IC50 (focal adhesion formation) [7, 16] | FN IC50 (fibronectin patch formation) [7, 16] | SF IC50 (stress fibers) [7, 16] | IC50 [7, 17] [nM] | Emax (maximal effect on cell count) [7, 18] | IC50 [5] [nM] | IC50 [7, 21] [nM] | IC50 [10, 22] [nM] | IC50 [11, 23] [nM] | IC50 [7, 24] [nM] | IC50 [7, 25] [nM] | IC50 [7, 26] [nM] | IC50 [7, 27] [nM] | IC50 [7, 30] [nM] | IC50 [7, 31] [nM] | IC50 [7, 32] [nM] | also measured |
| --- | --- | --- | --- | --- | --- | --- | --- | --- | --- | --- | --- | --- | --- | --- | --- | --- | --- | --- | --- | --- | --- |
| Cc1[nH]c(/C=C2\C(=O)Nc3ccccc32)c(C)c1CCC(=O)O [TSU-68] | 590 | > 10000 | > 10000 |  |  |  |  | > 10000 | 1.7% |  |  | 78.2 | 103 | > 10000 | > 10000 | > 10000 | > 10000 |  |  |  | IC50 [14]: > 10000 nM |

Reference: publication PMC5041959, “A high-content EMT screen identifies multiple receptor tyrosine kinase inhibitors with activity on TGFβ receptor” (Oncotarget, 2016)
